# Assay results taken from patent publication US20220296625A1 (priority 2019, published 2022).
# Like-named read-outs stand apart in the source and are kept apart here.
# Experiments:
# [1] = tested on: male C57BL mice; experiment: Survival of mice after streptozotocin i.p. with or without oral LPSp (Example 1); assay type: in vivo; conditions: STZ 250 mg/kg i.p.; for Survival rate (%): LPSp 100 μg/kg body weight/day in drinking water
# Description: 1) Reagents • LPS (LPSp) derived from Pantoea agglomerans belonging to genus Pantoea of family Enterobacteriaceae (mac0001 of Macrophi Inc.) • Streptozotocin (STZ) (SAJ-S0130 of Sigma-Aldrich)
# (§1) Six-week-old male C57BL mice were used. […] As food, the D12450B diet of Research Diets, Inc. was provided.
# PBS administration group (PBS i.p.): 0.5 mL of phosphate buffer saline (PBS) were injected into the peritoneal cavity of each mouse.
# [2] = tested on: male C57BL mice; experiment: Survival of mice after streptozotocin i.p. with or without oral LPSea (Example 5); assay type: in vivo; conditions: STZ 313 mg/kg i.p.; for Survival rate (%): LPSea 1 mg/kg body weight/day in drinking water
# Text: 1) Reagents • LPS (LPSea) derived from Enterobacter asburiae belonging to genus Enterobacter of family Enterobacteriaceae (Macrophi Inc.) • Streptozotocin (STZ) (SAJ-S0130 of Sigma-Aldrich)
# as §1
# [3] = assay type: in vivo, mice; conditions: for Mice body weights after anticancer agent administration (relative value in % with body weights for saline i.p. being 100): LPSp 1 mg/kg body weight/day in drinking water
# Text: (§2) Four-week-old male ICR mice were used.
# [4] = tested on: male ICR mice; experiment: Survival of mice after cisplatin i.p. with or without oral LPSp (Example 2); assay type: in vivo; conditions: cisplatin 17.4 mg/kg i.p.; for Survival rate (%): LPSp 1 mg/kg body weight/day in drinking water
# Text: as §2
# [5] = Body weight of mice after cyclophosphamide i.p. with or without oral LPSp (Example 3); conditions: 11th day and 13th day from administration; Tukey's multiple comparison test
# Description: Four-week-old male ICR mice were used. Husbandry of the mice was carried out in a temperature and humidity controlled animal facility under environmental conditions of ad libitum food and water, and 12 hr light/12 hr dark. As food, CE-12 of CLEA Japan, Inc. was provided. After measuring the body weights at the time of delivery, the mice were divided into 3 groups of 6 mice each.
# Physiological saline administration group (saline i.p.): 0.5 mL of physiological saline were injected into the peritoneal cavity of each mouse.
compound,measurement,setting,value
"CN(N=O)C(=O)N[C@H]1C(O)O[C@H](CO)[C@@H](O)[C@@H]1O (mixture of isomers) [STZ i.p., Streptozotocin]",mice died,[1]; 5th day,6 out of 6
same,Survival rate (%),"[1]; day 3, 6 mice per group",66.7%
same,Survival rate (%),[1]; day 4,33.3%
same,Survival rate (%),[1]; day 4.5,33.3%
same,Survival rate (%),[1]; day 5,0.0%
same,Survival rate (%),[1]; day 9,0.0%
same,Survival rate (%),[1]; day 11,0.0%
same,Survival rate (%),[1]; day 21,0.0%
same,Survival rate (%),[1]; day 29,0.0%
same,mice died,"[2]; by the 4th day from anticancer agent administration, LPSea 1 mg/kg body weight/day",1 out of 6
same,Survival rate (%),"[2]; day 3, 6 mice per group",100%
same,Survival rate (%),[2]; day 4,83.33%
same,Survival rate (%),[2]; day 8,83.33%
"O=c1[nH]cc(F)c(=O)[nH]1 [5-FU i.p., 5-fluorouracil]",Mice body weights after anticancer agent administration (relative value in % with body weights for saline i.p. being 100),"[3]; 0 day, 5-fluorouracil 360 mg/kg i.p.",102.0 ± 2.4%
same,weight loss in comparison to the physiological saline administration group,"[3]; 3rd day from anticancer agent administration, 5-fluorouracil 360 mg/kg i.p., Tukey's multiple comparison test",significant weight loss
same,"body weight, comparison of 5-FU i.p. and 5-FU i.p.+LPS groups","[3]; 6th day, Tukey's multiple comparison test P<0.05",significantly low
same,Mice body weights after anticancer agent administration (relative value in % with body weights for saline i.p. being 100),"[3]; 3 day, 5-fluorouracil 360 mg/kg i.p.",91.8 ± 4.1 %
same,Mice body weights after anticancer agent administration (relative value in % with body weights for saline i.p. being 100),"[3]; 6 day, 5-fluorouracil 360 mg/kg i.p.",94.5 ± 2.6^ %
"N.N.[Cl][Pt][Cl] [CDDP i.p., Cisplatin]",mice survived,"[4]; 14th day, LPSp 1 mg/kg body weight/day, Kaplan-Meier test P<0.05",1 out of 6
same,mice died,"[4]; by the 6th day from anticancer agent administration, LPSp 1 mg/kg body weight/day",5 out of 6
same,Survival rate (%),"[4]; day 5, 6 mice per group",50%
same,Survival rate (%),[4]; day 6,16.7%
same,Survival rate (%),[4]; day 7,16.7%
same,Survival rate (%),[4]; day 14,16.7%
"O=P1(N(CCCl)CCCl)NCCCO1 (stereo not shown) [CY i.p., Cyclophosphamide]",weight loss in comparison to the physiological saline administration group,[5],significant weight loss
